Measured values published in patent publication US8436178B2, “Imidazoquinolines with immuno-modulating properties” (AstraZeneca AB, priority 2007, dated 2013).

Columns and labels:
human TLR7 = biological target: T1, human TLR7 (Homo sapiens, UniProt Q9NYK1); assay: Human TLR7 assay (SEAP reporter in HEK293 cells); assay type: cell-based; conditions: SEAP induction in HEK293 cells expressing human TLR7, overnight incubation at 37° C., 0.1% DMSO
T1 construct: expressed in transfected cells; host or cells: HEK293 cell line stably expressing the pNiFty2-SEAP reporter plasmid; TLR7 in pUNO vector, blasticidin selection
T1 sequence (Q9NYK1 27-1049): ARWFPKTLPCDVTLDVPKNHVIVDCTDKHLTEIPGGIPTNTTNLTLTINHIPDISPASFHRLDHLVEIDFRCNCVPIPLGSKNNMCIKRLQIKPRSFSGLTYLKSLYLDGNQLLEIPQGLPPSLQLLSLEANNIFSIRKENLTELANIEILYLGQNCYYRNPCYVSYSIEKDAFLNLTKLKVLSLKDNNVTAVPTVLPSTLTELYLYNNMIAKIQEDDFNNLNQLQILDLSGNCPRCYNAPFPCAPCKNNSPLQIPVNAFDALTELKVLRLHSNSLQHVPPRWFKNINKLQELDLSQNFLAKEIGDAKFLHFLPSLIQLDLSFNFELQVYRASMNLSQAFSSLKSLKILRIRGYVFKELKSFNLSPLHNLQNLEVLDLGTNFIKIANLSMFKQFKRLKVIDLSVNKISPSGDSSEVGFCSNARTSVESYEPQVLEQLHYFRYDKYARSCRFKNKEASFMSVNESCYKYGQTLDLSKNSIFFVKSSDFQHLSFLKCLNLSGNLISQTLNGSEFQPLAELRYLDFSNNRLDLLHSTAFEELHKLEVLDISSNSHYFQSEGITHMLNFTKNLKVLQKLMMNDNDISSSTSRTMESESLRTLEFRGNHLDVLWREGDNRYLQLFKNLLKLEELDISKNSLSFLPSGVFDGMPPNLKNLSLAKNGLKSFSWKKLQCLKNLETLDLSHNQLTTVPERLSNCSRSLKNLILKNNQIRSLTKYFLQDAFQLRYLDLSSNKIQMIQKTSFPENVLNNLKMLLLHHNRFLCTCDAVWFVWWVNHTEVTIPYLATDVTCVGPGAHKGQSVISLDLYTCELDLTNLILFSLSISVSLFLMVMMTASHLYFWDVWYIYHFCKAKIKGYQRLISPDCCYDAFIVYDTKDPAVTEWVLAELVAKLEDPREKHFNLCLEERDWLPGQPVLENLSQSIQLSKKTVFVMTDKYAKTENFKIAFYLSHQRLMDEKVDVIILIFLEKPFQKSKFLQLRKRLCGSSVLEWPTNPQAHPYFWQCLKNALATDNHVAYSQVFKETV
Text: The most common variant sequence of human TLR7 (represented by the EMBL sequence AF240467) was cloned into the mammalian cell expression vector pUNO and transfected into a HEK293 cell line already stably expressing the pNiFty2-SEAP reporter plasmid; integration of the reporter gene was maintained by selection with the antibiotic zeocin. Transfectants with stable TLR7 expression were selected using the antibiotic blasticidin. In this reporter cell-line, expression of secreted alkaline phosphatase (SEAP) is controlled by an NFkB/ELAM-1 composite promoter comprising five NFkB sites combined with the proximal ELAM-1 promoter. TLR signaling leads to the translocation of NFkB and activation of the promoter results in expression of the SEAP gene. TLR7-specific activation was assessed by determining the level of SEAP produced following overnight incubation of the cells at 37° C. with the standard compound in the presence of 0.1% (v/v) dimethylsulfoxide (DMSO). Concentration dependent induction of SEAP production by compounds was expressed as the concentration of compound which produced half of the maximal level of SEAP induction for that compound (pEC50).

Male Brown Norway rats = assay: Antigen-induced pulmonary inflammation in a rat asthma model (OVA challenge, BALF); assay type: in vivo; conditions: BALF 48 h after challenge, Mean ± SE (n = 8)
Text: Rats were sensitised and challenged to produce allergic airway inflammation in a similar manner to that described by Underwood et al (British Journal of Pharmacology 2002; 137: 263-275, 2002). Male Brown Norway rats were sensitized subcutaneously with ovalbumin (OVA) and aluminum hydroxide on day 0, and challenged with aerosolized OVA solution on day14.

[1] = 0.1 mg/kg intratracheally 24 h before and 24 h after OVA-challenge
[2] = 1 mg/kg intratracheally 24 h before and 24 h after OVA-challenge

## CCCCc1nc2c(N)nc3ccccc3c2n1CCCN(Cc1ccc(CC(=O)OC)cc1)C(=O)CN(C)C [Example 3, Methyl 2-(4-((N-(3-(4-amino-2-butyl-1H-imidazo[4,5-c]quinolin-1-yl)propyl)-2-(dimethylamino)acetamido)methyl)phenyl)acetate]
Human TLR7
  EC50: 79.4 nM
Male Brown Norway rats; [1]
  Eosinophiles (cells/BALF): 67.2 ± 16.3 cells/BALF
  IL-5 (pg/ml BALF): 18.0 ± 8.7 pg/ml BALF
  IL-13 (pg/ml BALF): <4.9 pg/ml BALF
Male Brown Norway rats; [2]
  Eosinophiles (cells/BALF): 36.2 ± 11.3 cells/BALF
  IL-5 (pg/ml BALF): 11.3 ± 7.5 pg/ml BALF
  IL-13 (pg/ml BALF): <4.9 pg/ml BALF
